Patent US20110098177A1, “METHODS AND COMPOSITIONS OF PLANT MICRONUTRIENTS” (NOVUS INTERNATIONAL INC., priority 2006, published 2011)

Key:
Format in all cases: in vivo
[1] = tested on: soybean plants (Asgrow 1102); assay: Soybean seed protein and oil content (Examples 11-12); settings: in %
Experimental: The following experiments were performed on soybean plants growing in open-field plots during the summer and fall of 2008 at two production fields in West Central Minnesota. […] Trial design was a randomized complete block with 4 replications. Each plot measured 10' by 30' and consisted of five 22'' rows. Although all five rows of each plot were treated, only the center three rows (25' in length) of each plot were machine harvested. The two fields selected for these studies had historical Iron Deficiency Chlorosis (IDC) issues. The two field sites were planted by farmers with elite Roundup Ready commodity type soybean varieties with IDC tolerance (Asgrow 1102, Monsanto Corp.). […] BIOX-M was applied at a rate of 1.12 kg Mn/ha. […] All V4 treatments were applied in 10 gallons per acre of water with a backpack sprayer with a hand boom designed to “band” apply product directly to the plant row. Three nozzles with ConeJet TXVS-2 tips were oriented on either side and over the top of each row. This maximized the applied product to the plant tissue itself and minimized application of product to the soil surface. […] The V6 treatments (where applicable) were applied in 20 gallons per acre of water to increase the suspension of the BIOX products. Soybean seed was harvested after soybean maturity was reached (3 October at […], and 17 Oct. 2008 at Foxhome) and seed yields for each experimental treatment group were determined. In addition, seed samples from each treatment were dried to 13% moisture content, then analyzed for protein and oil content.

[2] = tested on: soybean plants (Asgrow 1102); assay: Visual greenness ratings (1-5 scale) of soybean plants, open-field (Examples 11-12); settings: for Greenness of soybean plants compared to control, statement: Foxhome site, 29 July rating
Experimental: The following experiments were performed on soybean plants growing in open-field plots during the summer and fall of 2008 at two production fields in West Central Minnesota. […] Trial design was a randomized complete block with 4 replications. Each plot measured 10' by 30' and consisted of five 22'' rows. Although all five rows of each plot were treated, only the center three rows (25' in length) of each plot were machine harvested. The two fields selected for these studies had historical Iron Deficiency Chlorosis (IDC) issues. The two field sites were planted by farmers with elite Roundup Ready commodity type soybean varieties with IDC tolerance (Asgrow 1102, Monsanto Corp.). […] BIOX-M was applied at a rate of 1.12 kg Mn/ha. […] All V4 treatments were applied in 10 gallons per acre of water with a backpack sprayer with a hand boom designed to “band” apply product directly to the plant row. Three nozzles with ConeJet TXVS-2 tips were oriented on either side and over the top of each row. This maximized the applied product to the plant tissue itself and minimized application of product to the soil surface. […] The V6 treatments (where applicable) were applied in 20 gallons per acre of water to increase the suspension of the BIOX products.

[3] = tested on: soybean plants (Asgrow 1102); assay: ICP-MS micronutrient content of soybean trifoliates (Examples 11-12); design: Micronutrient content from ICP-MS analysis: Mn: unit not given here; settings: for Micronutrient content from ICP-MS analysis: Fe: in ppm (unit assumed)
Experimental: The following experiments were performed on soybean plants growing in open-field plots during the summer and fall of 2008 at two production fields in West Central Minnesota. […] Trial design was a randomized complete block with 4 replications. Each plot measured 10' by 30' and consisted of five 22'' rows. Although all five rows of each plot were treated, only the center three rows (25' in length) of each plot were machine harvested. The two fields selected for these studies had historical Iron Deficiency Chlorosis (IDC) issues. The two field sites were planted by farmers with elite Roundup Ready commodity type soybean varieties with IDC tolerance (Asgrow 1102, Monsanto Corp.). […] BIOX-M was applied at a rate of 1.12 kg Mn/ha. […] All V4 treatments were applied in 10 gallons per acre of water with a backpack sprayer with a hand boom designed to “band” apply product directly to the plant row. Three nozzles with ConeJet TXVS-2 tips were oriented on either side and over the top of each row. This maximized the applied product to the plant tissue itself and minimized application of product to the soil surface. […] The V6 treatments (where applicable) were applied in 20 gallons per acre of water to increase the suspension of the BIOX products. […] The harvested plants were dried, ground, and subjected to Inductively Coupled Plasma-Mass Spectrometry (ICP-MS) analysis to determine plant micronutrient content.

CSCCC(O)C(=O)[O-].CSCCC(O)C(=O)[O-].[Mn+2] (stereo not drawn) [BIOX-M, Mn-HMTBA]
Oil content (13% moisture) ([1]; 7.0 kg/ha, V4, Foxhome): 18.28
Protein content (13% moisture) ([1]; 7.0 kg/ha, V4, Foxhome): 32.90
Oil content (13% moisture) ([1]; 7.0 kg/ha, V4, Renville): 19.97
Protein content (13% moisture) ([1]; 7.0 kg/ha, V4, Renville): 31.97
Mean visual greenness scores (1-5) ([2]; 7.0 kg/ha, V4, Jul. 15, 2008 Rating, Foxhome): 2.5
Mean visual greenness scores (1-5) ([2]; 7.0 kg/ha, V4, Jul. 15, 2008 Rating, Renville): 2.9
Mean visual greenness scores (1-5) ([2]; 7.0 kg/ha, V4, Jul. 29, 2008 Rating, Foxhome): 1.0 C
Mean visual greenness scores (1-5) ([2]; 7.0 kg/ha, V4, Jul. 29, 2008 Rating, Renville): 1.3
Greenness of soybean plants compared to control, statement ([2]; BIOX-M 1.12 kg Mn/ha): small but significant increase in greenness
Micronutrient content from ICP-MS analysis: Mn ([3]; 7.0 kg/ha, V4, Foxhome): 78.31
Micronutrient content from ICP-MS analysis: Fe ([3]; 7.0 kg/ha, V4, Foxhome): 90.52
Micronutrient content from ICP-MS analysis: Mn ([3]; 7.0 kg/ha, V4, Renville): 88.64
Micronutrient content from ICP-MS analysis: Fe ([3]; 7.0 kg/ha, V4, Renville): 99.40

Fe-HMTBA [BIOX-Fe]
Oil content (13% moisture) ([1]; 0.558 kg/ha, V4, V6, Foxhome): 18.42
Protein content (13% moisture) ([1]; 0.558 kg/ha, V4, V6, Foxhome): 32.73
Oil content (13% moisture) ([1]; 0.558 kg/ha, V4, V6, Renville): 20.16
Protein content (13% moisture) ([1]; 0.558 kg/ha, V4, V6, Renville): 32.04
Oil content (13% moisture) ([1]; 0.558 kg/ha, V4, Foxhome): 18.46
Protein content (13% moisture) ([1]; 0.558 kg/ha, V4, Foxhome): 32.60
Oil content (13% moisture) ([1]; 0.558 kg/ha, V4, Renville): 20.12
Protein content (13% moisture) ([1]; 0.558 kg/ha, V4, Renville): 31.93
Oil content (13% moisture) ([1]; 1.12 kg/ha, V4, V6, Foxhome): 18.40
Protein content (13% moisture) ([1]; 1.12 kg/ha, V4, V6, Foxhome): 32.68
Oil content (13% moisture) ([1]; 1.12 kg/ha, V4, V6, Renville): 20.10
Protein content (13% moisture) ([1]; 1.12 kg/ha, V4, V6, Renville): 32.36
Oil content (13% moisture) ([1]; 1.12 kg/ha, V4, Foxhome): 18.48
Protein content (13% moisture) ([1]; 1.12 kg/ha, V4, Foxhome): 32.47
Oil content (13% moisture) ([1]; 1.12 kg/ha, V4, Renville): 20.28
Protein content (13% moisture) ([1]; 1.12 kg/ha, V4, Renville): 32.23
Mean visual greenness scores (1-5) ([2]; 0.558 kg/ha, V4, V6, Jul. 15, 2008 Rating, Foxhome): 2.4
Mean visual greenness scores (1-5) ([2]; 0.558 kg/ha, V4, V6, Jul. 15, 2008 Rating, Renville): 2.4
Mean visual greenness scores (1-5) ([2]; 0.558 kg/ha, V4, V6, Jul. 29, 2008 Rating, Foxhome): 1.0 C
Mean visual greenness scores (1-5) ([2]; 0.558 kg/ha, V4, V6, Jul. 29, 2008 Rating, Renville): 1.1
Mean visual greenness scores (1-5) ([2]; 0.558 kg/ha, V4, Jul. 15, 2008 Rating, Foxhome): 2.8
Mean visual greenness scores (1-5) ([2]; 0.558 kg/ha, V4, Jul. 15, 2008 Rating, Renville): 2.6
Mean visual greenness scores (1-5) ([2]; 0.558 kg/ha, V4, Jul. 29, 2008 Rating, Foxhome): 1.4 B, C
Mean visual greenness scores (1-5) ([2]; 0.558 kg/ha, V4, Jul. 29, 2008 Rating, Renville): 1.1
Mean visual greenness scores (1-5) ([2]; 1.12 kg/ha, V4, V6, Jul. 15, 2008 Rating, Foxhome): 2.6
Mean visual greenness scores (1-5) ([2]; 1.12 kg/ha, V4, V6, Jul. 15, 2008 Rating, Renville): 2.6
Mean visual greenness scores (1-5) ([2]; 1.12 kg/ha, V4, V6, Jul. 29, 2008 Rating, Foxhome): 1.5 A, B, C
Mean visual greenness scores (1-5) ([2]; 1.12 kg/ha, V4, V6, Jul. 29, 2008 Rating, Renville): 1.4
Mean visual greenness scores (1-5) ([2]; 1.12 kg/ha, V4, Jul. 15, 2008 Rating, Foxhome): 2.5
Mean visual greenness scores (1-5) ([2]; 1.12 kg/ha, V4, Jul. 15, 2008 Rating, Renville): 2.1
Mean visual greenness scores (1-5) ([2]; 1.12 kg/ha, V4, Jul. 29, 2008 Rating, Foxhome): 1.0 C
Mean visual greenness scores (1-5) ([2]; 1.12 kg/ha, V4, Jul. 29, 2008 Rating, Renville): 1.0
Greenness of soybean plants compared to control, statement ([2]; higher rate (269 g Fe/ha) at V4 only): significantly increased the greenness in treated plants
Greenness of soybean plants compared to control, statement ([2]; higher rate (269 g Fe/ha) at both V4 and V6): no change in greenness compared to control
Toxic effects on soybean plants (in words) ([2]; iron concentrations 0.094% - 0.376% by weight): without toxic effects
Greenness of soybean plants compared to control, statement ([2]; lower rate (134 g Fe/ha) at V4): had no effect on greenness
Greenness of soybean plants compared to control, statement ([2]; lower rate (134 g Fe/ha) at both V4 and V6): significantly increased the greenness of the soybean plants
Micronutrient content from ICP-MS analysis: Mn ([3]; 0.558 kg/ha, V4, V6, Foxhome): 76.21
Micronutrient content from ICP-MS analysis: Fe ([3]; 0.558 kg/ha, V4, V6, Foxhome): 88.30
Micronutrient content from ICP-MS analysis: Mn ([3]; 0.558 kg/ha, V4, V6, Renville): 96.44
Micronutrient content from ICP-MS analysis: Fe ([3]; 0.558 kg/ha, V4, V6, Renville): 96.26
Micronutrient content from ICP-MS analysis: Mn ([3]; 0.558 kg/ha, V4, Foxhome): 81.82
Micronutrient content from ICP-MS analysis: Fe ([3]; 0.558 kg/ha, V4, Foxhome): 83.38
Micronutrient content from ICP-MS analysis: Mn ([3]; 0.558 kg/ha, V4, Renville): 88.29
Micronutrient content from ICP-MS analysis: Fe ([3]; 0.558 kg/ha, V4, Renville): 98.39
Micronutrient content from ICP-MS analysis: Mn ([3]; 1.12 kg/ha, V4, V6, Foxhome): 87.67
Micronutrient content from ICP-MS analysis: Fe ([3]; 1.12 kg/ha, V4, V6, Foxhome): 83.35
Micronutrient content from ICP-MS analysis: Mn ([3]; 1.12 kg/ha, V4, V6, Renville): 89.00
Micronutrient content from ICP-MS analysis: Fe ([3]; 1.12 kg/ha, V4, V6, Renville): 98.74
Micronutrient content from ICP-MS analysis: Mn ([3]; 1.12 kg/ha, V4, Foxhome): 72.70
Micronutrient content from ICP-MS analysis: Fe ([3]; 1.12 kg/ha, V4, Foxhome): 84.93
Micronutrient content from ICP-MS analysis: Mn ([3]; 1.12 kg/ha, V4, Renville): 76.15
Micronutrient content from ICP-MS analysis: Fe ([3]; 1.12 kg/ha, V4, Renville): 97.42
